Data from US20100284984A1, “ADENOSINE AND ITS MIMETICS. MODULATORS, TRANSPORT INHIBITORS, AND RECEPTOR AGONISTS AS A THERAPEUTIC TOOL TO REPLACE OR IMPROVE THE EFFICACY OF DEEP BRAIN STIMULATION” (University of Rochester, priority 2007, published 2010).
Entries after “also recorded” stand apart in the source; their conditions may differ. Counter-ions that a name gives are not always drawn. Like-named read-outs stand apart in the source and are kept apart here.

What was measured:
[1] = target: S-adenosylhomocysteine hydrolase (Homo sapiens, UniProt P23526); settings: cited from earlier work
[2] = target: Nucleoside Triphosphate Diphosphohydrolases; settings: Gendron et al.; cited from earlier work
adenosine kinase = adenosine kinase (Homo sapiens, UniProt P55263); settings: cited from earlier work
Ecto-ATPase [3] = settings: Chen et al., endothelial cells; cited from earlier work
thalamic neurons [4] = assay: HFS-induced depression of eEPSPs in thalamic slices, pharmacology; assay type: cell-based, mouse; settings: 50 μM; HFS 250 μA, 100 μs, 5 sec, 20° C.
thalamic neurons [5] = assay: HFS-induced membrane depolarization of thalamic neurons; assay type: cell-based, mouse; settings: thalamic slices during HFS
harmaline-induced tremor = assay: Harmaline-induced tremor, intrathalamic delivery by bilateral microdialysis probes; assay type: in vivo, mice; settings: for tremor activity: thalamus; for tremor following washout: after cessation of microdialysis of agonist; for time course of depression of tremor: microdialysis perfusion
Method: Harmaline was administed i.p. 20 min prior to DBS (20-30 mg/kg) (Wilms et al., “Animal Models of Tremor,” Mov Disord 14:557-71 (1999); Martin et al., “Harmaline-Induced Tremor as a Potential Preclinical Screening Method for Essential Tremor Medications,” Mov Disord 20:298-305 (2005), which are hereby incorporated by reference in their entirety). 6-OHDA (3 μg/μl in saline containing 0.1% ascorbic acid) was injected in the right median forebrain bundle (AP: −1.2 mm; ML: ±1.1 mm; DV: −5.0 mm in a volume of 2 μl) (Jolicoeur et al., “Hypokinesia, Rigidity, and Tremor Induced by Hypothalamic 6-OHDA Lesions in The Rat,” Brain Res Bull 26:317-20 (1991), which are hereby incorporated by reference in their entirety) in mice anaesthetized with urethane (1.6 g/kg). Only animals that developed body tremor were included in the study. Tacrine was administered in a dose of 2.5 mg/kg i.p. and induced a robust jaw response with the peak frequency within the 3-5 Hz range (Cousins et al., “Tremulous Jaw Movements Induced by The Acetylcholinesterase Inhibitor Tacrine: Effects of Antiparkinsonian Drugs,” Eur J Pharmacol 322:137-45 (1997), which is hereby incorporated by reference in its entirety). […] For electrode and microdialysis implantation, mice were anaesthetized with a mixture of Ketamine (60 mg/kg) and Xylazine (10 mg/kg) and placed into a stereotactic frame. The skull was exposed and concentric bipolar microelectrodes (SNE-100, KOPF) or microdialysis probes (Bioanalytical Systems, Inc.) were implanted into the ventrolateral thalamic nucleus at the following coordinates: AP: −1.4 mm; ML: ±0.9 mm; DV: −3.7 mm. The electrodes or microdialysis probes were attached to the skull with dental cement. Following 24 hrs recovery, stimulation was delivered through a constant isolated current source (An ISO-Flex stimulus isolator with a Master-8-vp stimulator; AMPI) and consisted of monophasic 60 μs square pulses of varying amplitude (15, 25, 50 μA) and frequency (25, 75, 125, 200 Hz). The electrodes implanted in tremor patients has 4 contacts with a total surface area of 0.24 cm^2, an impedance ˜500 Ohm, and an upper limit of 30 μC/cm^2 in charge density (Kuncel et al., “Selection of Stimulus Parameters for Deep Brain Stimulation,” Clin Neurophysiol 115:2431-41 (2004), which is hereby incorporated by reference in its entirety). In mice, electrodes with a smaller tip (diameter 0.0055-0.250 mm, surface area 0.001-0.05 mm^2) were used and the current amplitude was adjusted to obtain charge density within the clinical range. Microdialysis probes were perfused 24 hrs after implantation using a microinjection pump (Harvard Apparatus Inc. USA) at a rate of 2 μl/min. The perfusion buffer contained (in mM): 138 NaCl, 1.5 K2HPO4, 2 CaCl2, 2 MgCl2, 10 HEPES, pH 7.3. […]. Tremor was recorded by either EMG electrodes placed in the occipital muscles or by the Convuls-1 pressure transducer (Columbus Instruments) in awake freely moving animals. […]. The mice were perfusion-fixed and sectioned on a vibratome (TPI) for confirmation of electrode or microdialysis probe placements.
[…]. Microdialysis probes were inserted bilaterally in thalamus 24-48 hrs prior to administration of harmaline. […].

thalamic neurons [6] = assay: Drug effect on evoked EPSPs (eEPSP) in thalamic slices, current clamp; assay type: cell-based, mouse
Method: Thalamic slices (300 μm) from 14-18 day old mouse pups (FVB/NJ mice; Jackson Laboratory) were cut on a Vibratome (TPI) in an ice-cold cutting solution containing (in mM): 2.5 KCl, 1.25 NaH2PO4, 10 MgSO4, 5 CaCl2, 10 glucose, 26 NaHCO3, 230 sucrose and gassed with 5% CO2 and 95% O2. Slices were incubated for a minimum of 1 hr in a slice solution containing (in mM): 126 NaCl, 2.5 KCl, 1.25 NaH2PO4, 2 MgCl2, 2 CaCl2, 10 glucose, and 26 NaHCO3, pH 7.4, and gassed with 5% CO2 and 95% O2 at room temperature. The slices were transferred to a recording chamber (1.5 ml) perfused with aCSF at room temperature or 32° C. Whole-cell current clamp recordings were obtained using a 700B Multiclamp amplifier (Axon Instruments) (Jiang et al., “A Kainate Receptor Increases The Efficacy of Gabaergic Synapses,” Neuron 30:503-13 (2001); Tian et al., “An Astrocytic Basis of Epilepsy,” Nat Med 11:973-81 (2005), which are hereby incorporated by reference in their entirety). Concentric bipolar stimulating electrodes (FHC) were placed ˜100-400 μm ventromedial to the patched VL thalamic neuron. Stimulation was delivered through a constant isolated current source (ISO-Flex stimulus isolator with a Master-8-vp stimulator; AMPI) and consisted of monophasic 60 μs square pulses of varying amplitude (15, 25, 50 μA) and frequency (25, 75, 125, 200 Hz). Based upon maximum current amplitude and the surface area of the electrode, it is estimated that the maximum charge density was in the range of ˜1-10 μC/cm^2. The artifacts of the HFS signal were blanked and staggered to allow continuous observation of the 2.5 Hz signal (Anderson et al., “Selective Attenuation of Afferent Synaptic Transmission as a Mechanism of Thalamic Deep Brain Stimulation-Induced Tremor Arrest,” J Neurosci 26:841-50 (2006), which is hereby incorporated by reference in its entirety). Adenosine measurements were detected using needle shaped electrode (Pt/Ir wire) biosensors (Sarissa Biomedical). Calibration was carried out at the beginning and end of each slice experiment in the bath above the slice. Measurements were obtained ˜100 μm from the stimulation electrode in the thalamic slice. […].
To further analyze the role of adenosine in HFS, the effect of perfusion with an aCSF containing 1-100 μM adenosine in thalamic slices was studied. […]. […] The AMPA receptor antagonist, CNQX could not be tested due to its direct effect on EPSCs (Wang et al., “Astrocytic Ca(2+) Signaling Evoked by Sensory Stimulation in Vivo,” Nat Neurosci 9:816-23 (2006), which is hereby incorporated by reference in its entirety) (FIG. 3G). […]. […]

Rat Parotid Ecto-ATPase = settings: Dowd et al.; cited from earlier work
adenosine transport = settings: cited from earlier work; for Ki: adenosine transport inhibitors
Ecto-ATPase [7] = settings: Yegutkin et al., rat liver plasma membranes; cited from earlier work

Chain of S-adenosylhomocysteine hydrolase (P23526 whole entry): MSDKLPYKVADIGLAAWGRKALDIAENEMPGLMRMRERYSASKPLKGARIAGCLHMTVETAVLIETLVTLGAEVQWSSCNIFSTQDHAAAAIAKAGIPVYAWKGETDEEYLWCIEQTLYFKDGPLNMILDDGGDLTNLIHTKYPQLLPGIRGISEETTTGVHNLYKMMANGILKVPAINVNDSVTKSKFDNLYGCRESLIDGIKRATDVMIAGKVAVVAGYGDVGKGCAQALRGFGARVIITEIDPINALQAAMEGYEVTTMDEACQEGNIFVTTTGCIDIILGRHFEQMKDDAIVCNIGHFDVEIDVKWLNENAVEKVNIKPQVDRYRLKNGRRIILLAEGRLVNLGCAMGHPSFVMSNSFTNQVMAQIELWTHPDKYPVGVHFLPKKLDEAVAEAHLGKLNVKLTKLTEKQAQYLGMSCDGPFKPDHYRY
Chain of adenosine kinase (P55263 whole entry, species assumed): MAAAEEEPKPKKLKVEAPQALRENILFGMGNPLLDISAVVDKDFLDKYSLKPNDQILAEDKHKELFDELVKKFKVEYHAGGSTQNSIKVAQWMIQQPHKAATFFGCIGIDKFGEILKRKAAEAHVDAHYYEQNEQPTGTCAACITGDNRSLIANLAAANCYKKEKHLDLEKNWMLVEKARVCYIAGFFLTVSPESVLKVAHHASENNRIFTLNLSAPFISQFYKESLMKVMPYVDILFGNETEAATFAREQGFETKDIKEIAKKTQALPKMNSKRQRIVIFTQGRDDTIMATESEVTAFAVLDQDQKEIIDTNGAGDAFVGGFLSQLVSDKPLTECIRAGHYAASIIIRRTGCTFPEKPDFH

In the case of 3-deaza-DEA methylester [C3-OMeDEA], the Ki ([1]; read-out: Ki) is listed as 1500 nM.

For 8-CH2BuS-ATP, the Ki [2] is given as 45000 nM.

For `CCCCSc1nc2c(N)ncnc2n1[C@@H]1O[C@H](COP(=O)(O)OP(=O)(O)OP(=O)(O)O)[C@@H](O)[C@H]1O` [8-Bus-ATP], the Ki [2] is listed as 10000 nM.

In the case of `Nc1ncnc2c1c(I)cn2[C@@H]1C[C@H](N)[C@@H](O)[C@H]1O` [A-134974], the IC50 (adenosine kinase; McGaraughty et al.) is given as 0.06 nM.

In the case of `Nc1ncnc2c1c(Br)cn2C1CC(N)C(O)C1O` (stereo not drawn) [A-286501, N7-((1′R,2′S,3′R,4′S)-2′,3′-dihydroxy-4′-amino-cyclopentyl)-4-amino-5-bromo-pyrrolo[2,3-a]pyrimidine], the IC50 (adenosine kinase) is listed as 0.47 nM.

In the case of `Nc1ncnc2c1ncn2[C@@H]1O[C@H](COP(=O)(O)OP(=O)(O)NP(=O)(O)O)[C@@H](O)[C@H]1O` [AMP-PNP], the “pIC 50” value (Ecto-ATPase [3]) is listed as 4.0.

With `N[C@@H](CCCP(=O)(O)O)C(=O)O` [APV] the “effect on HFS-induced depression of eEPSPs (FIG. 3G)” value (thalamic neurons [4]) was “no significant effect” and the “HFS-induced change of neuronal membrane potential (depolarization / hyperpolarization)” value (thalamic neurons [5]) was 18.15±6.69 mV.

For `Nc1ncnc2c1ncn2[C@@H]1O[C@H](CO[P@](=O)(O)O[P@](=O)(O)O[P@@](=O)(O)S)[C@@H](O)[C@H]1O` [ATPyS], the “pIC 50” value (Ecto-ATPase [3]) is given as 5.2.

For `Nc1nccc2c1ncn2C[C@@H](O)[C@@H](O)C(=O)O` [C3-DEA, 3-deaza-DEA], the Ki ([1]; read-out: Ki) is listed as 1500 nM.

In the case of `OC[C@H]1O[C@@H](n2cnc3c(NC4CCCC4)nc(Cl)nc32)[C@H](O)[C@@H]1O` [CCPA, 2-chloro-N6-cyclopentyladenosine], the tremor activity (harmaline-induced tremor; CCPA 10-100 μM in microdialysis perfusate) is reported as “attenuated; also recorded: reduced tremor activity with a potency comparable to DBS”, the tremor following washout (harmaline-induced tremor) is reported as “rebound effect was often observed” and the “time course of depression of tremor” value (harmaline-induced tremor) is reported as “developed slowly over minutes”. For the same compound, the “depression of eEPSPs” value (thalamic neurons [6]; 1.0 μM) was 75.59±4.98%.

With `N#Cc1cc2[nH]c(=O)c(=O)[nH]c2cc1[N+](=O)[O-]` [CNQX] the “HFS-induced change of neuronal membrane potential (depolarization / hyperpolarization)” value (thalamic neurons [5]) was 15.91±4.53 mV.

In the case of `CCOc1ccc(Nc2ccc(C(=C3C=CC(=[N+](CC)Cc4cccc(S(=O)(=O)[O-])c4)C=C3)c3ccc(N(CC)Cc4cccc(S(=O)(=O)O)c4)cc3)cc2)cc1` [Coomassie brilliant blue R], the IC50 (Rat Parotid Ecto-ATPase) is listed as 114000 nM.

For `Nc1ncnc2c1ncn2C[C@@H](O)[C@@H](O)C(=O)O` [DEA, eritadenine[2(R),3(R)-dihydroxy-4-(9-zdenyl)-butyric acid]], the Ki [1] is listed as 30 nM.

In the case of `O=S(=O)(O)c1cc(N=C=S)ccc1C=Cc1ccc(N=C=S)cc1S(=O)(=O)O` [DIDS, 4,4′diisothiocyanatostilbene-2,2′disulphonec acid], the IC50 (Rat Parotid Ecto-ATPase) is listed as 150000 nM.

In the case of `COC(=O)C(O)CCn1cnc2c(N)ncnc21` (centres unmarked) [DZ2002, methyl 4-(adenine-9-yl)-2-hydroxybutanoate], the Ki ([1]; read-out: Ki) is listed as 17.9 nM.

In the case of `CCOc1cc2nc(N3CCOCC3)nc(N3CCC(n4c(=O)c5cc(C)ccc5n(C)c4=O)CC3)c2cc1OCC` [KF 24345, 3-[1-(6,7-diethoxy-2-morpholinoquinazolin-4-yl)piperidin-4-yl]-1,6-dimethyl-2,4(1H,3H)-quinazolinedione hydrochloride], the Ki (adenosine transport) is listed as 0.1 to 1 nM.

For `CCCn1cnc2c1c(=O)n(CCCCC(C)=O)c(=O)n2C` [Propentofylline], the Ki (adenosine transport) is given as 10000 to 100000 nM.

For `Nc1ncnc2c1ncn2[C@@H]1O/C(=C\F)[C@@H](O)[C@H]1O` [ZDDFA, (Z)-4′,5′-didehydro-5′-deoxy-5′-fluoroadenosine], the Ki [1] is listed as 39.9 nM.

With `Nc1ncnc2c1ncn2[C@@H]1O[C@H](CO)[C@@H](O)[C@H]1O` [adenosine] the tremor activity (harmaline-induced tremor; adenosine 1-10 mM in microdialysis perfusate) was “reduced tremor activity with a potency comparable to DBS”, the tremor following washout (harmaline-induced tremor) was “rebound effect was often observed” and the “time course of depression of tremor” value (harmaline-induced tremor) was “developed slowly over minutes”. For the same compound, the EC50 (thalamic neurons [6]; Mus musculus, Neuron, aCSF containing 1-100 μM adenosine, read-out: ED50 for depression of eEPSP amplitude) was 3350 ± 750 nM and the “maximal reduction of eEPSP amplitude” value (thalamic neurons [6]; aCSF containing 1-100 μM adenosine) was 76.13±6.47 % of control values.

For `O=C1CCc2cc(OCCCCc3nnnn3C3CCCCC3)ccc2N1` [cilostazol], the IC50 (adenosine transport; adenosine uptake (Liu et al.)) is listed as 10000 nM.

For `COc1cc(C(=O)OCCCN2CCCN(CCCOC(=O)c3cc(OC)c(OC)c(OC)c3)CC2)cc(OC)c1OC` [dilazep], the Ki (adenosine transport) is listed as 0.1 to 1 nM.

In the case of `Cc1cccc(C)c1NC(=O)CN1CCN(CCCC(c2ccc(F)cc2)c2ccc(F)cc2)CC1` [lidoflazine], the Ki (adenosine transport; unit inferred) is listed as 100 nM.

For `Cc1ncc2n1-c1ccc(Cl)cc1C(c1ccccc1F)=NC2` [midazolam], the Ki (adenosine transport; unit inferred) is listed as 1000 nM.

For `NC(=O)C1CN(CC(=O)Nc2c(Cl)cccc2Cl)CCN1CCCC(c1ccc(F)cc1)c1ccc(F)cc1` (centres unmarked) [mioflazine], the Ki (adenosine transport; unit inferred) is given as 10 nM.

For `Nc1ncnc2c1ncn2[C@@H]1O[C@H](COP(=O)(O)CP(=O)(O)OP(=O)(O)O)[C@@H](O)[C@H]1O` [α,β-MeATP], the “pIC 50” value (Ecto-ATPase [3]) is listed as 4.5.

For reactive blue, the “pIC 50” value (Ecto-ATPase [7]) is given as 4.3 and the IC50 (Rat Parotid Ecto-ATPase) is given as 28000 nM.
